These results are taken from patent US9873690B2, “3-indol substituted derivatives, pharmaceutical compositions and methods for use” (Pfizer Inc., priority 2015, dated 2018).

Each structure is given as a SMILES string.

T1 sequence (P48775 whole entry): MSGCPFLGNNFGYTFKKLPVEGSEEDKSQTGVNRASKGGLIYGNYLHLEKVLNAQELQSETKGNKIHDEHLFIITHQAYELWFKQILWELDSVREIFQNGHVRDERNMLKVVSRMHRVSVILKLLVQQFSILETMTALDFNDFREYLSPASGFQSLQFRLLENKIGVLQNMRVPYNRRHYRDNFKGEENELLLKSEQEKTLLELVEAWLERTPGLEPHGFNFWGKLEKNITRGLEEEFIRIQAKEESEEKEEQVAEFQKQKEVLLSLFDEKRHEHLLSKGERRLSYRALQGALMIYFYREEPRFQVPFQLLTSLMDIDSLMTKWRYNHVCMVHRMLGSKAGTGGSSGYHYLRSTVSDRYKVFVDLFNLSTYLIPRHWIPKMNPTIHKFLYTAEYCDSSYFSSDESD

The test addresses T1, hTDO2 (Homo sapiens, UniProt P48775).
T1 construct: endogenous in cells; host or cells: A172 human brain glioblastoma cells (ATCC CRL-1620)
The experiment in a line: Cellular assay for TDO2 activity determination in A172 cells. The class given is cell-based. Conditions: human glioblastoma A172 cells naturally expressing hTDO2; overnight incubation; kynurenine by absorbance at 480 nm. A digest of the protocol:
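A172 glioblastoma cells endogenously expressing hTDO2, 1.25×10^4 cells/well, incubated overnight at 37 °C, 5% CO2 in IMDM with 2% FBS and ten compound concentrations. Supernatant kynurenine measured after TCA treatment and Ehrlich's reagent (4-dimethylaminobenzaldehyde) by absorbance at 480 nm against a kynurenine standard curve, then curve-fitted.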
The IC50 is the point on the concentration scale where inhibition reaches its midpoint. Read a high IC50 as lower potency. As to `CNC(=O)C(CN1C(C)c2cc(-c3c[nH]c4cc(F)ccc34)ccc2S1(=O)=O)OC` (single isomer, unassigned; (-)) [Example 106, (−)-3-(5-(6-fluoro-1H-indol-3-yl)-3-methyl-1,1-dioxidobenzo[d]isothiazol-2(3H)-yl)-2-methoxy-N-methylpropanamide], the half-inhibitory concentration (IC50) came to 507 nM.

In the case of `CC1c2cc(-c3c[nH]c4cc(F)ccc34)ccc2S(=O)(=O)N1C1CNC1` (single isomer, unassigned; (+)) [Example 92, (+)-2-(azetidin-3-yl)-5-(6-fluoro-1H-indol-3-yl)-3-methyl-2,3-dihydrobenzo[d]isothiazole 1,1-dioxide], the IC50 worked out at 27 nM.

Consider `CC1c2cc(-c3c[nH]c4cc(F)ccc34)ccc2S(=O)(=O)N1Cc1ncn(C)n1` (single isomer, unassigned; (+)) [Example 86, (+)-5-(6-fluoro-1H-indol-3-yl)-3-methyl-2-((1-methyl-1H-1,2,4-triazol-3-yl)methyl)-2,3-dihydrobenzo[d]isothiazole 1,1-dioxide], for which 97 nM corresponded to half-maximal inhibition (IC50).

In the case of `COC(=O)NCC1NS(=O)(=O)c2ccc(-c3c[nH]c4cc(F)ccc34)cc21` (single isomer, unassigned; (-)) [Example 21, (−)-methyl ((5-(6-fluoro-1H-indol-3-yl)-1,1-dioxido-2,3-dihydrobenzo[d]isothiazol-3-yl)methyl)carbamate], 156 nM corresponded to half-maximal inhibition (IC50). This IC50 is about 1.6-fold higher than that of the molecule before.

With `CC1c2cc(-c3c[nH]c4cc(F)ccc34)ccc2S(=O)(=O)N1C[C@]1(C)CCC(=O)N1` (single isomer, unassigned; (+)) [Example 81], half-maximal inhibition (IC50) was put at 473 nM.

The molecule `O=S1(=O)NC(CCO)c2cc(-c3c[nH]c4cc(F)ccc34)ccc21` (single isomer, unassigned; (+)) [Example 30, (+)-5-(6-fluoro-1H-indol-3-yl)-3-(2-hydroxyethyl)-2,3-dihydrobenzo[d]isothiazole 1,1-dioxide] returned an IC50 of 34 nM. Compared with the last molecule, the IC50 is about 14-fold lower.

The molecule `CNCC1NS(=O)(=O)c2ccc(-c3c[nH]c4cc(F)ccc34)cc21` (single isomer, unassigned; (+)) [Example 138, (+)-5-(6-fluoro-1H-indol-3-yl)-3-((methylamino)methyl)-2,3-dihydrobenzo[d]isothiazole 1,1-dioxide] displayed a half-inhibitory concentration (IC50) of 234 nM.

Molecule `CNC(=O)C(C)N1C(C)c2cc(-c3c[nH]c4cc(F)ccc34)ccc2S1(=O)=O` (single isomer, unassigned; (-)) [Example 148, (−)-2-(5-(6-fluoro-1H-indol-3-yl)-3-methyl-1,1-dioxidobenzo[d]isothiazol-2(3H)-yl)-N-methylpropanamide] had a half-inhibitory concentration (IC50) of 265 nM.

As to `CC1c2cc(-c3c[nH]c4cc(F)ccc34)ccc2S(=O)(=O)N1C[C@H](O)CO` (single isomer, unassigned) [Example 95], the midpoint of inhibition, the IC50, lay at 114 nM.

`CC1c2cc(-c3c[nH]c4cc(F)ccc34)ccc2S(=O)(=O)N1C1CCNC(=O)C1` (single isomer, unassigned; (+)) [Example 120]: the midpoint of inhibition, the IC50, lay at 91 nM.

`CC1c2cc(-c3c[nH]c4cc(F)ccc34)ccc2S(=O)(=O)N1CCc1n[nH]c(=O)o1` (single isomer, unassigned; (+)) [Example 134, (+)-5-(2-(5-(6-fluoro-1H-indol-3-yl)-3-methyl-1,1-dioxidobenzo[d]isothiazol-2 (3H)-yl)ethyl)-1,3,4-oxadiazol-2(3H)-one] returned an IC50 of 53 nM.

`O=S1(=O)c2ccc(-c3c[nH]c4cc(F)ccc34)cc2C(CO)N1CC(O)CO` (single isomer, unassigned; (+)) [Example 144, (+)-2-(2,3-dihydroxypropyl)-5-(6-fluoro-1H-indol-3-yl)-3-(hydroxymethyl)-2,3-dihydrobenzo[d]isothiazole 1,1-dioxide] showed an IC50 of 190 nM.

On to `NC(=O)CCN1Cc2cc(-c3c[nH]c4cc(F)ccc34)ccc2S1(=O)=O` [Example 44, 3-(5-(6-fluoro-1H-indol-3-yl)-1,1-dioxidobenzo[d]isothiazol-2(3H)-yl)propanamide], for which it took 255 nM to reach half-maximal inhibition (IC50).

In the case of `CCCC1NS(=O)(=O)c2ccc(-c3c[nH]c4cc(F)ccc34)cc21` (single isomer, unassigned; (-)) [Example 7, (−)-5-(6-fluoro-1H-indol-3-yl)-3-propyl-2,3-dihydrobenzo[d]isothiazole 1,1-dioxide], it took 1450 nM to reach half-maximal inhibition (IC50).

Turning to `CC1c2cc(-c3c[nH]c4cc(F)ccc34)ccc2S(=O)(=O)N1CC(=O)N(C)C` (single isomer, unassigned; (+)) [Example 114, (+) 2-(5-(6-fluoro-1H-indol-3-yl)-3-methyl-1,1-dioxidobenzo[d]isothiazol-2(3H)-yl)-N,N-dimethylacetamide], the concentration for half-maximal inhibition (IC50) came out at 239 nM.

Consider `CC1c2cc(-c3c[nH]c4cc(F)ccc34)ccc2S(=O)(=O)N1C1CCNC(=O)C1` (single isomer, unassigned; (-)) [Example 119, (−)-4-(-5-(6-fluoro-1H-indol-3-yl)-3-methyl-1,1-dioxidobenzo[d]isothiazol-2(3H)-yl)piperidin-2-one], for which the half-maximal inhibitory concentration (IC50) was found to be 390 nM.

In turn, `CNC(=O)CCN1C(C)c2cc(-c3c[nH]c4cc(F)ccc34)ccc2S1(=O)=O` (single isomer, unassigned; (-)) [Example 46, (−)-3-(5-(6-fluoro-1H-indol-3-yl)-3-methyl-1,1-dioxidobenzo[d]isothiazol-2(3H)-yl)-N-methylpropanamide] gave an IC50 of 328 nM.

`O=S1(=O)NC(C2CC2)c2cc(-c3c[nH]c4cc(F)ccc34)ccc21` (single isomer, unassigned; (-)) [Example 11, (−)-3-cyclopropyl-5-(6-fluoro-1H-indol-3-yl)-2,3-dihydrobenzo[d]isothiazole 1,1-dioxide] returned an IC50 of 103 nM.

Molecule `CC1c2cc(-c3c[nH]c4cc(F)ccc34)ccc2S(=O)(=O)N1CCO` (single isomer, unassigned; (+)) [Example 63, (+)-5-(6-fluoro-1H-indol-3-yl)-2-(2-hydroxyethyl)-3-methyl-2,3-dihydrobenzo[d]isothiazole 1,1-dioxide] had an IC50 of 70 nM.

For `CC1c2cc(-c3c[nH]c4cc(F)ccc34)ccc2S(=O)(=O)N1CC(N)=O` (single isomer, unassigned; (-)) [Example 116], the half-inhibitory concentration (IC50) was determined as 26 nM.

For `CNS(=O)(=O)CCN1C(C)c2cc(-c3c[nH]c4cc(F)ccc34)ccc2S1(=O)=O` (single isomer, unassigned; (-)) [Example 59, (−)-2-(5-(6-fluoro-1H-indol-3-yl)-3-methyl-1,1-dioxidobenzo[d]isothiazol-2(3H)-yl)-N-methylethane-1-sulfonamide], the half-maximal inhibitory concentration (IC50) came out at 425 nM.

`CC1c2cc(-c3c[nH]c4cc(F)ccc34)ccc2S(=O)(=O)N1C1CNC(=O)C1` (single isomer, unassigned; (-)) [Example 124, (−)-4-(5-(6-fluoro-1H-indol-3-yl)-3-methyl-1,1-dioxido-benzo[d]isothiazol-2(3H)-yl)pyrrolidin-2-one] had a concentration for half-maximal inhibition (IC50) of 68 nM.

Molecule `CC1c2cc(-c3c[nH]c4cc(F)ccc34)ccc2S(=O)(=O)N1C1CNC(=O)C1` (single isomer, unassigned; (-)) [Example 125, (−)-4-(5-(6-fluoro-1H-indol-3-yl)-3-methyl-1,1-dioxido-benzo[d]isothiazol-2(3H)-yl)pyrrolidin-2-one] had an IC50 of 505 nM.
